In series [1] the test system is mESCs. Briefly: RT-qPCR of lineage markers Dab2, Lrp2, Fgf5 in mESC monolayer. The settings on record: 24 hr. The class given is cell-based, mouse. From the text:
FIGS. 16A-16E. Hyperosmotic stress in mESCs impacts transcription factor expression at protein and mRNA levels. (FIG. 16A) The inner cell mass (ICM) of the blastocyst coexpresses Oct4/Rex1/Nanog in pluripotent cells at E3.5. After E3.5 a Rex1 subpopulation delaminates from the ICM and expresses primitive endoderm (PrEndo) marker, Lrp2, at E3.5 and extraembryonic endoderm (ExEndo) marker, Dab2, at E4.5. At E4.75, Rex1 decreases in the remaining cells of the ICM and, by E5.5, fibroblast growth factor (FGF)5 is expressed in embryonic ectoderm (EmEcto). […] (FIG. 16C) Total RNA was isolated and subjected to reverse transcription to form complementary DNA (cDNA). Real-time quantitative PCR (RTqPCR) was performed with Oct4, Nanog, and Rex1 primers. Histograms represent relative fold change in mRNA expression using the ddCt method. (FIG. 16D) mESCs in monolayer were incubated±sorbitol and ±LIF for 24 hr. Dab2, Lrp2, and Fgf5 mRNA transcript levels were examined by RT-qPCR. […] Error flags are the standard error of the mean (n=3). “a” indicates significant difference for sorbitol +LIF compared with LIF− at 24 hr. […]
RT-qPCR analysis. mESCs were trypsinized and harvested for RT-Qpcr analysis using a 7500 Fast Real Time PCR System (Applied Biosystems). […] RNA content was measured using ND-1000 Spectrophotometer (NanoDrop and ThermoScientific, Wilmington, DE). Complementary DNA (cDNA) was synthesized from 50 to 100 ng of total RNA using QuantiTect Reverse Transcription Kit (Qiagen) according to the manufacturer's instructions, and diluted 1:5. […]
Primer pairs were checked for specificity using BLAST analysis and were checked by both agarose gel electrophoresis and thermal dissociation curves to ensure amplification of a single product, and to rule out formation of primer dimers during the RT-qPCR. […] The expression of the target genes was quantified against that of two internal reference genes, glyceraldehyde-3-phosphate dehydrogenase (GAPDH) and 18s ribosomal RNA subunit (18s rRNA). […] Fold change was determined using the ddCt method. […]
On the technique in general: In qPCR the cycle at which signal appears reflects the starting amount.

Another series concerns SAPK. The settings on record: 100 mM, 20% O2, despite FGF4; cited from earlier work.
Series [2] has as its system mESCs.
Description: Hyperosmotic stress effects on cell proliferation in murine embryonic stem cells (mESCs). (FIG. 13A) mESCs were cultured in the presence of 0-400 mM sorbitol for either 4 or 24 hr and transmitted light micrographs were taken. (FIG. 13B) mESCs were cultured±leukemia inhibitory factor (LIF) and ±200 mM sorbitol for 0-72 hr. mESCs were trypsinized and counted with a hemocytometer following trypan blue exclusion. Error flags represent standard error of the mean, n≥3. (FIG. 13C) Doubling rates were calculated and tabulated from cell counts in (FIG. 13B). (FIG. 13D) mESCs were incubated in the presence of LIF±200 mM sorbitol for 24, 48, or 72 hr and transmitted light micrographs were taken. (FIG. 13E) mESCs were cultured in the presence of 200 mM sorbitol for 0-24 hr. In some wells, cells were lysed, and proteins were fractionated using sodium dodecyl sulfate-polyacrylamide gel electrophoresis (SDS-PAGE), blotted, and probed for the presence of the caspase 3 cleavage product (n=3). Time-matched cells were fixed, and stained for the cleavage product of caspase 3 with Hoechst staining of the nuclei. […]
Results. mESC growth and colony morphology during hyperosmotic stress. […] Osmolality was measured at 330±4 mOsm/kg H2O before sorbitol addition (described in “Materials and Methods” section; Zhong, 2007), and 531±7 mOsm/kg H2O after addition of 200 mM sorbitol. […]
The next series has as its system Rex1-RFP ESCs. In words: Cell counts and doubling rate of Rex1-RFP ESCs at time zero and 3 days of sorbitol. The class given is cell-based, mouse. The settings on record: 72 hr; for Doubling Rate: 0 mM 32.7 hr; for Relative Cell# (Total #, OUTSIDE BOX): time zero = 100, 0 mM = 460. The source says: FIG. 28. Partial validation of the Theory of Compensatory Differentiation whereby stress decreases in size the normal levels of stem cell expansion and, in the nonmorbid stress range where doubling rates were near-normal, the diminished potency group that is enabled to differentiate is constant in size. […] A modified Venn diagram from previous modeling is presented here and analyzed with respect to supporting flow cytometry data for changes in potency subpopulation sizes derived from Table 8 and discussed in the text. For convenience, Table 8 is reproduced here:
Finally it was tested whether endogenous Rex1 protein levels decreased commensurately with decreases in Rex1-RFP activity levels assayed in FIG. 24. Rex1-RFP ESCs were cultured for 3 days with 0-300 mM sorbitol and assayed by immunoblot for endogenous Rex1 levels normalized to ACTB loading controls and with time zero unstressed Rex1 set to 100 as a baseline level. Whereas stress-induced decrease in Rex1 activity in FIG. 24 were 20% and 70% at 200 mM and 300 mM sorbitol, respectively endogenous Rex1 protein losses were 30% and 70% at 200 mM and 300 mM, respectively (FIG. 27). Through the series from 200 mM to 300 mM sorbitol there was generally good agreement between activity level and endogenous protein level for Rex1 at 3 days of stress and with Rex1 protein loss at 1 day (Example 2). To correlate stress-induced Rex1 potency loss with stress-induced diminished cell growth rates, cell counts were performed at time zero and at 3 days over the same sorbitol dose range as in FIG. 27 and FIG. 24 and FIGS. 26A & 26B. […]; see Brief Description of the Figures for Table 8).
The stress dose-dependent cell number of low potency cells can be determined by multiplying the fractional subpopulation size of cells with potency loss, which increases with stress and the decreasing cell numbers with increasing stress. This was done in Table 8 and compared with a previously published Venn diagram for compensatory differentiation (Puscheck, 2015, MB; Rappolee, 2013), modified to produce FIG. 28. In the stress-dose range where population size decreases, but increasing doubling rate is in a manageable range, the absolute size of the subpopulation of potency loss (intermediate and very low dim cells) is remarkably the same. At stress doses where very large doubling rate increases occur the subpopulation number with potency loss decreases, probably due to stem cell morbidity at these higher hyperosmotic stress levels (Example 2). Thus all three lines of evidence summarized here are consistent with the theory, but with limitations.

Setting [3] is: 200 mM +LIF, vs time-matched +LIF and -LIF controls.

The text below walks through data of patent US20250154611A1, “SYSTEMS AND METHODS TO DETECT STEM CELL STRESS AND USES THEREOF” (Wayne State University, priority 2014, published 2025).

Molecules are shown by their SMILES. Where “and” joins values, the source holds several entries; their conditions need not be identical. Equal values may be shown once. Read-outs that look alike come from different tables or passages of the source.

In the case of `OC[C@@H](O)[C@@H](O)[C@H](O)[C@@H](O)CO` [sorbitol], the “Dab2 mRNA expression” value with mESCs [1] (setting [3]) is reported as “significantly higher”. Also, in the series on mESCs [1] (setting [3]), the “Lrp2 mRNA expression” value is listed as “significantly higher”. The “upregulation of EmEcto marker Fgf5 mRNA” value with mESCs [1] (200 mM) is “suppressed”. Also, in the series on SAPK, the SAPK increase was 5 fold. Moreover, the “lethality in mESCs” value was “nonlethal” in the series with mESCs [2] (200 mM) and “lethal” with mESCs [2] (400 mM). For the same compound, the “% Dim + Intermediate × Cell# (INSIDE BOX cell number)” value with Rex1-RFP ESCs (200 mM) came to 9893; with Rex1-RFP ESCs (225 mM), 9930; in the series with Rex1-RFP ESCs (250 mM) it was 9968; with Rex1-RFP ESCs (275 mM) it was 7418; with Rex1-RFP ESCs (300 mM), 4540. Also, the “Doubling Rate” value in the series with Rex1-RFP ESCs (200 mM) was 34.1 h; in the series on Rex1-RFP ESCs (225 mM) it was 35.6 h; in the series on Rex1-RFP ESCs (250 mM) it was 39.3 h; in the series with Rex1-RFP ESCs (275 mM) it was 51.4 h; in the series with Rex1-RFP ESCs (300 mM) it was 103.4 h. In addition, the “Relative Cell# (Total #, OUTSIDE BOX)” value in the series with Rex1-RFP ESCs (200 mM) is 432; in the series with Rex1-RFP ESCs (225 mM), 407; in the series with Rex1-RFP ESCs (250 mM) it was 356; in the series on Rex1-RFP ESCs (300 mM) it was 161 and 162. The cell doubling rates is 34.1 to 39.3 h in the series with Rex1-RFP ESCs (200-250 mM range) and 51.4 to 103.4 h in the series with Rex1-RFP ESCs (275-300 mM).
